Test results reported in PubChem BioAssay (NCI).
Where “and” joins values, the source holds several entries; their conditions need not be identical. Identical values can stand only once.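 Where inhibition never reached the appropriate level, the endpoint shown equals the highest concentration tested. Otherwise, values were interpolated linearly from a five-concentration, 48-hour dose response in 96-well plates. GI50 is the concentration that inhibits growth by half. Definition used: TGI = concentration required for complete inhibition of growth.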

What was measured:
Assay in all cases: NCI anticancer screen, dose series, 48 h
[1] = system: DLD-1 colon
[2] = system: HS 578T breast
[3] = system: K-562 leukemia
[4] = system: KM20L2 colon
[5] = system: OVCAR-4 ovarian
[6] = system: RXF 393 renal
[7] = system: SNB-19 CNS
[8] = system: SW-620 colon
[9] = system: UACC-257 melanoma
[10] = system: NCI/ADR-RES ovarian

| Structure (SMILES) | TGI [1] [µM] | TGI [2] [µM] | TGI [3] [µM] | GI50 [4] [µM] | GI50 [5] | TGI [5] | GI50 [6] | TGI [6] | GI50 [7] | TGI [7] | TGI [8] | TGI [9] | GI50 [1] [µM] | GI50 [2] | GI50 [3] | TGI [4] [µM] | GI50 [10] | TGI [10] | GI50 [8] | GI50 [9] |
| --- | --- | --- | --- | --- | --- | --- | --- | --- | --- | --- | --- | --- | --- | --- | --- | --- | --- | --- | --- | --- |
| CCC/C(=N\NC(=S)N1CC2CCC(CC2)C1)c1ccccn1 | 3.33 | 4.43 | 1.23 | 0.0165 | 0.119 µM | 0.897 µM and 0.702 µM | 0.0356 µM | 1.34 µM and 0.518 µM | 0.338 µM | 2.04 µM and 1.92 µM | 0.555 µM and 0.221 µM | 0.197 µM and 1.35 µM |  |  |  |  |  |  |  |  |
| O=C(O)C1(C(=O)O)CCC1.[NH2-].[NH2-].[Pt+2] | > 237 | > 250 | > 250 | 212 | 84 µM and 120 µM | 221 µM and > 250 µM | 76 µM and 178 µM | 167 µM and > 250 µM | 148 µM and 103 µM | 224 µM and > 250 µM | > 250 µM | 250 µM and > 250 µM | 206 | 73.6 µM and 121 µM | 142 µM and > 166 µM | > 235 | 171 µM and 168 µM | 228 µM and > 250 µM | 162 µM and > 250 µM | 129 µM and > 229 µM |
| Cc1ccc(NC(=O)CC2Sc3ccccc3NC2=O)c(C)c1 (centres undefined) | 31 |  | 19 |  |  | 48.1 µM |  | 31 µM |  | 30.3 µM | 56 µM | 39.7 µM |  |  |  | 30.5 |  |  |  |  |
| O=C(O)CCC(N=Cc1nc(-c2ccccc2)oc1O)C(=O)O (centres undefined) | > 100 |  | > 100 |  |  | > 100 µM |  | > 100 µM |  | > 100 µM | > 100 µM | > 100 µM |  |  |  | > 100 |  |  |  |  |
| COC(=O)C(C(=O)C(=O)Nc1ccc([N+](=O)[O-])cc1[N+](=O)[O-])c1nc2ccc(Cl)cc2[nH]c1=O (centres undefined) | > 100 |  | > 100 |  |  | > 100 µM |  | > 100 µM |  | > 100 µM | > 100 µM | > 100 µM |  |  |  | > 100 |  |  |  |  |
| CCOC(=O)N1CCC(=O)C(CNC23CC4CC(CC(C4)C2)C3)C1 (centres undefined) | 46.4 |  | 31.2 |  |  | 29 µM |  | 33.2 µM |  | > 100 µM | 39.5 µM | 42.4 µM |  |  |  | > 100 |  |  |  |  |
